Measurements taken from US7956089B2, “Cyclopropanecarboxylate and pest controlling composition containing the same” (Sumitomo Chemical Company, Limited, priority 2007, dated 2011).

Columns and labels:
Culex pipiens pallens [1] = assay: Test Example 1: topical application of acetone solution to the nota of female imagoes, death rate; type: in vivo; conditions: 0.015 μg of the test compound per mosquito, 0.005% (w/v) acetone solution, after 24 hours
Description: A 0.005% (w/v) solution of a test compound in acetone was prepared. The nota of 10 female imagoes of Culex pipiens pallens were treated with the acetone solution in an amount of 0.015 μg of the test compound per mosquito. Then, water and feed were given to the test mosquitoes. After 24 hours, the number of dead mosquitoes was counted, and a death rate was calculated (2 repetitions).

Culex pipiens pallens [2] = assay: Test Example 2: vapor exposure over treated aluminum dish in an inverted cup, knockdown rate; type: in vivo; conditions: 0.002% (w/v) acetone solution, drug amount about 2 mg per 1 m^2, female imagos, after 60 minutes
Description: A 0.002% (w/v) solution of a test compound in acetone was prepared. Then, 0.64 ml of the acetone solution was dropped onto the bottom of an aluminum dish having a diameter of 9 cm. Then, acetone was air-dried (drug amount: about 2 mg per 1 m^2). Ten female imagos of Culex pipiens pallens were released in a polyethylene cup (diameter: 9 cm; height: 4.5 cm), and the upper opening portion of the polyethylene cup was covered with a 16 mesh nylon net. Next, the cup was inverted onto the aluminum dish. After 60 minutes, the number of knocked down mosquitoes was counted and a knockdown rate was calculated (2 repetitions). As a result, the knockdown rate of the present compound (1) was 70%.

| SMILES | Death rate (%) (Culex pipiens pallens [1]) | knockdown rate (Culex pipiens pallens [2]) |
| --- | --- | --- |
| COCc1c(F)c(F)c(COC(=O)[C@@H]2[C@@H](C)C2(C)C)c(F)c1F [Comparative compound (B), 4-methoxymethyl-2,3,5,6-tetrafluorobenzyl (1R)-trans-2,3,3-trimethylcyclopropanecarboxylate, reference compound] | 55% | – |
| C#CCc1c(F)c(F)c(COC(=O)[C@@H]2[C@@H](C)C2(C)C)c(F)c1F [Present compound (1), 4-(2-propynyl)-2,3,5,6-tetrafluorobenzyl (1R)-trans-2,2,3-trimethylcyclopropanecarboxylate] | 95% | 70% |
